In brackets after ≈: the same amount, converted by molar mass.
Experiments:
Assay type in all cases: cell-based
[1] = test system: P. mirabilis 1; assay: In vitro antibacterial activity, two-fold agar-plate dilution method (MIC), P. mirabilis 1; conditions: Proteus mirabilis, heart infusion agar, 37° C., 20 hours, read-out: MIC (minimal inhibitory concentration)
Protocol: (§1) Now in order to show the utility of the object compounds [I], the test data on MIC (minimal inhibitory concentration) of representative compounds [I] of this invention are shown in the following.
(§2) In vitro antibacterial activity was determined by the two-fold agar-plate dilution method as described below.
(§3) One loopful of an overnight culture of each test strain in Trypticase-soy broth (10^6 viable cells per ml) was streaked on heart infusion agar (HI-agar) containing graded concentrations of representative test compound, and the minimal inhibitory concentration (MIC) was expressed in terms of μg/ml after incubation at 37° C. for 20 hours.

[2] = test system: E. coli 58; assay: In vitro antibacterial activity, two-fold agar-plate dilution method (MIC), E. coli 58; conditions: Escherichia coli, heart infusion agar, 37° C., 20 hours, read-out: MIC (minimal inhibitory concentration)
Protocol: as §1, §2, §3

[3] = test system: S. aureus 209P JC-1; assay: In vitro antibacterial activity, two-fold agar-plate dilution method (MIC), S. aureus 209P JC-1; conditions: Staphylococcus aureus, heart infusion agar, 37° C., 20 hours, read-out: MIC (minimal inhibitory concentration)
Protocol: as §1, §2, §3

[4] = test system: P. vulgaris IAM 1025; assay: In vitro antibacterial activity, two-fold agar-plate dilution method (MIC), P. vulgaris IAM 1025; conditions: Proteus vulgaris, IAM1025, heart infusion agar, 37° C., 20 hours, read-out: MIC (minimal inhibitory concentration)
Protocol: as §1, §2, §3

[5] = test system: E. coli 31; assay: In vitro antibacterial activity, two-fold agar-plate dilution method (MIC), E. coli 31; conditions: Escherichia coli, heart infusion agar, 37° C., 20 hours, read-out: MIC (minimal inhibitory concentration)
Protocol: as §1, §2, §3

Row | Structure (SMILES) | MIC [1] [mg/L] | MIC [2] [mg/L] | MIC [3] [mg/L] | MIC [4] [mg/L] | MIC [5] [mg/L]
1 | Nc1nc(/C(=N/OC2CC2)C(=O)N[C@@H]2C(=O)N3C(C(=O)[O-])=C(C[n+]4ccccc4)CS[C@H]23)cs1 [(1)] | 0.1 (≈ 0.2 µM) | 0.05 (≈ 0.0999 µM) | 0.39 (≈ 0.779 µM) | 0.05 (≈ 0.0999 µM) | ≤ 0.025
2 | Cn1c(SCC2=C(C(=O)O)N3C(=O)[C@@H](NC(=O)/C(=N\OC4CC4)c4csc(N)n4)[C@H]3SC2)n[nH]c(=O)c1=O [(3)] | 0.05 (≈ 0.0861 µM) | ≤ 0.025 | 0.39 (≈ 0.672 µM) | 0.05 (≈ 0.0861 µM) | ≤ 0.025
3 | Nc1nc(/C(=N/OC2CC2(Cl)Cl)C(=O)N[C@@H]2C(=O)N3C(C(=O)[O-])=C(C[n+]4ccccc4)CS[C@H]23)cs1 (some centres unmarked) [(6)] | 1.56 (≈ 2.74 µM) | 0.2 (≈ 0.351 µM) | 0.39 (≈ 0.685 µM) | 0.05 (≈ 0.0878 µM) | 0.05 (≈ 0.0878 µM)
4 | CC(=O)OCC1=C(C(=O)O)N2C(=O)[C@@H](NC(=O)/C(=N\OC3CC3)c3csc(N)n3)[C@H]2SC1 [(9)] | 0.05 (≈ 0.104 µM) | 0.05 (≈ 0.104 µM) | 1.56 (≈ 3.24 µM) | ≤ 0.025 | 0.05 (≈ 0.104 µM)
5 | Nc1nc(/C(=N/OC2CC2)C(=O)N[C@@H]2C(=O)N3C(C(=O)[O-])=C(C[n+]4ccccc4)CS[C@H]23)ns1 [(10)] | 0.2 (≈ 0.399 µM) | 0.2 (≈ 0.399 µM) | 0.78 (≈ 1.56 µM) | 0.1 (≈ 0.199 µM) | < 0.025

The next lines start with the values.

Row | MIC [1] [mg/L] | MIC [2] [mg/L] | MIC [3] [mg/L] | MIC [4] [mg/L] | MIC [5] [mg/L] | Structure (SMILES)
6 | 0.2 (≈ 0.348 µM) | 0.05 (≈ 0.0871 µM) | 0.39 (≈ 0.679 µM) | ≤ 0.025 | ≤ 0.025 | Nc1nc(/C(=N/OC2CC2Cl)C(=O)N[C@@H]2C(=O)N3C(C(=O)O)=C(CSc4nncs4)CS[C@H]23)cs1 (single isomer, unassigned) [(7)]
7 | 0.05 (≈ 0.0927 µM) | ≤ 0.025 | 0.39 (≈ 0.723 µM) | ≤ 0.025 | ≤ 0.025 | Nc1nc(/C(=N/OC2CC2)C(=O)N[C@@H]2C(=O)N3C(C(=O)O)=C(CSc4nncs4)CS[C@H]23)cs1 [(2)]
8 | 0.1 (≈ 0.174 µM) | 0.05 (≈ 0.087 µM) | 0.39 (≈ 0.679 µM) | 0.05 (≈ 0.087 µM) | ≤ 0.025 | Nc1nc(/C(=N/OC2CC2)C(=O)N[C@@H]2C(=O)N3C(C(=O)O)=C(CSc4ccc5nnnn5n4)CS[C@H]23)cs1 [(4)]
9 | 0.05 (≈ 0.0927 µM) | ≤ 0.025 | 0.39 (≈ 0.723 µM) | ≤ 0.025 | ≤ 0.025 | Nc1nc(/C(=N/OC2CC2)C(=O)N[C@@H]2C(=O)N3C(C(=O)O)=C(CSc4ncns4)CS[C@H]23)cs1 [(5)]
10 | 0.1 (≈ 0.185 µM) | 0.05 (≈ 0.0927 µM) | 0.78 (≈ 1.45 µM) | 0.1 (≈ 0.185 µM) | ≤ 0.025 | Nc1nc(/C(=N/OC2CC2)C(=O)N[C@@H]2C(=O)N3C(C(=O)O)=C(CSc4cnns4)CS[C@H]23)cs1 [(8)]

From patent US4861769A, “Cephem compounds” (Fujisawa Pharmaceutical Co., Ltd., priority 1985, dated 1989)
